Literature values as cited in patent US20060084635A1, “Aspirin and vitamin and/or trace element compositions for the amelioration and treatment of vascular disease” (priority 1993, published 2006).
“Also recorded” adds a separate entry of the source. Read-outs that look alike come from different tables or passages of the source. Values belong to the compound of their own block, whether it stands above or below them.

What was measured:
[1] = system: vascular tissue; set-up: key: + Beneficial; 0 No Effect; − Detrimental
[2] = system: prostaglandins in the vascular wall and platelets
[3] = system: platelets
[4] = system: serum cholesterol and triglycerides; details: for blood serum levels of cholesterol and triglycerides: in vivo
[5] = in sufficient amounts
[6] = system: vascular lesions in branches of the aorta and cerebral arteries; details: rats; diet containing seven times the level of zinc required for normal growth
[7] = system: vascular wall wound healing; details: rat, in vivo
[8] = system: immune-triggered endothelial damage
[9] = system: atherosclerotic lesions; details: animals fed an atherogenic diet
[10] = system: retirement community residents; details: for All Deaths RR / Ischemic Heart Disease RR / Myocardial Infarction RR / Other Heart Disease RR / Stroke RR / Total Cardiovascular Deaths RR: relative risk vs Aspirin− Vitamin−

Compound: CC(=O)Oc1ccccc1C(=O)O [Aspirin, aspirin]
Anti-Aggregant ([1]; Table 1): +
Decreased Formation of Clots ([1]; Table 1): +
Decreased Immune-Induced Lesions ([1]; Table 1): 0
Decreased Peroxidation ([1]; Table 1): 0
Decreases Serum Cholesterol ([1]; Table 1): 0
Inhibition of Cholesterol Migration ([1]; Table 1): +
Platelet Activity ([1]; Table 1): −
Prostaglandin Synthesis ([1]; Table 1): −
Speeding of Wound Healing ([1]; Table 1): −
platelet prostaglandin function [2]: irreversibly block platelet prostaglandin function
prostaglandin activity in the vascular wall [2]: reversibly decreases prostaglandin activity in the vascular wall
tendency of blood clot formation ([3]; through platelet activity): reduces the tendency of blood clot formation

Compound: [Cr] [Chromium]
Anti-Aggregant ([1]; Table 2): 0
Decreased Formation of Clots ([1]; Table 2): 0
Decreased Immune-Induced Lesions ([1]; Table 2): 0
Decreased Peroxidation ([1]; Table 2): 0
Decreases Serum Cholesterol ([1]; Table 2): +
Inhibition of Cholesterol Migration ([1]; Table 2): 0
Platelet Activity ([1]; Table 2): 0
Prostaglandin Synthesis ([1]; Table 2): 0
Speeding of Wound Healing ([1]; Table 2): 0

Compound: [Cu] [Copper]
Anti-Aggregant ([1]; Table 2): 0
Decreased Formation of Clots ([1]; Table 2): 0
Decreased Immune-Induced Lesions ([1]; Table 2): +
Decreased Peroxidation ([1]; Table 2): 0
Decreases Serum Cholesterol ([1]; Table 2): +
Inhibition of Cholesterol Migration ([1]; Table 2): 0
Platelet Activity ([1]; Table 2): 0
Prostaglandin Synthesis ([1]; Table 2): 0
Speeding of Wound Healing ([1]; Table 2): +

Compound: [Mg+2] [Magnesium]
Anti-Aggregant ([1]; Table 2): 0
Decreased Formation of Clots ([1]; Table 2): 0
Decreased Immune-Induced Lesions ([1]; Table 2): 0
Decreased Peroxidation ([1]; Table 2): 0
Decreases Serum Cholesterol ([1]; Table 2): +
Inhibition of Cholesterol Migration ([1]; Table 2): 0
Platelet Activity ([1]; Table 2): +
Prostaglandin Synthesis ([1]; Table 2): 0
Speeding of Wound Healing ([1]; Table 2): +

undesirable effects of supplements [5]: skin flush and dizziness
Compound: O=C(O)c1cccnc1 [Niacin, Niacin (nictotinic acid)]
Anti-Aggregant ([1]; Table 1): 0
Decreased Formation of Clots ([1]; Table 1): 0
Decreased Immune-Induced Lesions ([1]; Table 1): 0
Decreased Peroxidation ([1]; Table 1): 0
Decreases Serum Cholesterol ([1]; Table 1): +
Inhibition of Cholesterol Migration ([1]; Table 1): 0
Platelet Activity ([1]; Table 1): 0
Prostaglandin Synthesis ([1]; Table 1): +
Speeding of Wound Healing ([1]; Table 1): 0
blood serum levels of cholesterol and triglycerides [4]: reduce the blood serum levels of cholesterol and triglycerides
blood serum levels of cholesterol and triglycerides ([4]; listed as niacin): reduced

Compound: [Se] [Selenium]
Anti-Aggregant ([1]; Table 2): +
Decreased Formation of Clots ([1]; Table 2): 0
Decreased Immune-Induced Lesions ([1]; Table 2): +
Decreased Peroxidation ([1]; Table 2): +
Decreases Serum Cholesterol ([1]; Table 2): +
Inhibition of Cholesterol Migration ([1]; Table 2): 0
Platelet Activity ([1]; Table 2): +
Prostaglandin Synthesis ([1]; Table 2): +
Speeding of Wound Healing ([1]; Table 2): 0

Compound: Cc1ncc(CO)c(CO)c1O.Cl [Vitamin B6]
Anti-Aggregant ([1]; Table 1): 0
Decreased Formation of Clots ([1]; Table 1): 0
Decreased Immune-Induced Lesions ([1]; Table 1): 0
Decreased Peroxidation ([1]; Table 1): 0
Decreases Serum Cholesterol ([1]; Table 1): +
Inhibition of Cholesterol Migration ([1]; Table 1): 0
Platelet Activity ([1]; Table 1): 0
Prostaglandin Synthesis ([1]; Table 1): 0
Speeding of Wound Healing ([1]; Table 1): 0

Compound: O=C1O[C@H]([C@@H](O)CO)C(O)=C1O [Vitamin C]
Anti-Aggregant ([1]; Table 1): 0
Decreased Formation of Clots ([1]; Table 1): 0
Decreased Immune-Induced Lesions ([1]; Table 1): 0
Decreased Peroxidation ([1]; Table 1): 0
Decreases Serum Cholesterol ([1]; Table 1): +
Inhibition of Cholesterol Migration ([1]; Table 1): 0
Platelet Activity ([1]; Table 1): 0
Prostaglandin Synthesis ([1]; Table 1): +
Speeding of Wound Healing ([1]; Table 1): 0
prostaglandin activity in the vascular wall [2]: increases the level of activity of prostaglandins in the vascular wall
prostaglandin activity in the vascular wall ([2]; listed as vitamin C): increased

Compound: [Zn] [Zinc]
Anti-Aggregant ([1]; Table 2): 0
Decreased Formation of Clots ([1]; Table 2): 0
Decreased Immune-Induced Lesions ([1]; Table 2): 0
Decreased Peroxidation ([1]; Table 2): 0
Decreases Serum Cholesterol ([1]; Table 2): +
Inhibition of Cholesterol Migration ([1]; Table 2): 0
Platelet Activity ([1]; Table 2): 0
Prostaglandin Synthesis ([1]; Table 2): 0
Speeding of Wound Healing ([1]; Table 2): 0
incidence and severity of vascular lesions / atherosclerosis [6]: reduced incidence of atherosclerosis in rats; also recorded: greatly reduced

serum cholesterol levels ([4]; at higher doses): net increase in serum cholesterol levels
Compound: Vitamin A
Anti-Aggregant ([1]; Table 1): +
Decreased Formation of Clots ([1]; Table 1): 0
Decreased Immune-Induced Lesions ([1]; Table 1): 0
Decreased Peroxidation ([1]; Table 1): 0
Decreases Serum Cholesterol ([1]; Table 1): −
Inhibition of Cholesterol Migration ([1]; Table 1): 0
Platelet Activity ([1]; Table 1): 0
Prostaglandin Synthesis ([1]; Table 1): 0
Speeding of Wound Healing ([1]; Table 1): +
vascular wall wound healing / arterial healing [7]: improve arterial healing; also recorded: speeds vascular wall wound healing
immune-triggered endothelial damage / immune-induced lesions [8]: preventative effect on immune-induced lesions
anti-aggregant activity [3]: mild anti-aggregant activity

Compound: Vitamin E
Anti-Aggregant ([1]; Table 1): +
Decreased Formation of Clots ([1]; Table 1): 0
Decreased Immune-Induced Lesions ([1]; Table 1): +
Decreased Peroxidation ([1]; Table 1): +
Decreases Serum Cholesterol ([1]; Table 1): +
Inhibition of Cholesterol Migration ([1]; Table 1): 0
Platelet Activity ([1]; Table 1): 0
Prostaglandin Synthesis ([1]; Table 1): +
Speeding of Wound Healing ([1]; Table 1): 0
serum and liver cholesterol levels ([4]; supplementation in vitamin E deficient animals): decrease serum and liver cholesterol levels in a dose- and time-dependent manner
immune-triggered endothelial damage / immune-induced lesions [8]: preventative effect on immune-induced lesions; also recorded: protective effect
severity of lesions [9]: reduce the severity of lesions
anti-aggregant activity [3]: mild anti-aggregant effect

Compound: aspirin [Aspirin+ Vitamin−]
All Deaths No. ([10]; Men): 45
Ischemic Heart Disease No. ([10]; Men): 8
Myocardial Infarction No. ([10]; Men): 7
Other Heart Disease No. ([10]; Men): 6
Stroke No. ([10]; Men): 2
Total Cardiovascular Deaths No. ([10]; Men): 24
All Deaths RR ([10]; Men): 1.00
Ischemic Heart Disease RR ([10]; Men): 1.40
Myocardial Infarction RR ([10]; Men): 0.88
Other Heart Disease RR ([10]; Men): 1.52
Stroke RR ([10]; Men): 0.50
Total Cardiovascular Deaths RR ([10]; Men): 1.09
All Deaths No. ([10]; Women): 47
Ischemic Heart Disease No. ([10]; Women): 9
Myocardial Infarction No. ([10]; Women): 4
Other Heart Disease No. ([10]; Women): 6
Stroke No. ([10]; Women): 4
Total Cardiovascular Deaths No. ([10]; Women): 26
All Deaths RR ([10]; Women): 0.82
Ischemic Heart Disease RR ([10]; Women): 1.06
Myocardial Infarction RR ([10]; Women): 0.49
Other Heart Disease RR ([10]; Women): 0.81
Stroke RR ([10]; Women): 0.68
Total Cardiovascular Deaths RR ([10]; Women): 0.91

Compound: aspirin [Aspirin++ Vitamin−]
All Deaths No. ([10]; Men): 65
Ischemic Heart Disease No. ([10]; Men): 10
Myocardial Infarction No. ([10]; Men): 7
Other Heart Disease No. ([10]; Men): 7
Stroke No. ([10]; Men): 7
Total Cardiovascular Deaths No. ([10]; Men): 27
All Deaths RR ([10]; Men): 1.35
Ischemic Heart Disease RR ([10]; Men): 1.37
Myocardial Infarction RR ([10]; Men): 0.91
Other Heart Disease RR ([10]; Men): 1.57
Stroke RR ([10]; Men): 1.53
Total Cardiovascular Deaths RR ([10]; Men): 1.09
All Deaths No. ([10]; Women): 77
Ischemic Heart Disease No. ([10]; Women): 14
Myocardial Infarction No. ([10]; Women): 10
Other Heart Disease No. ([10]; Women): 12
Stroke No. ([10]; Women): 9
Total Cardiovascular Deaths No. ([10]; Women): 45
All Deaths RR ([10]; Women): 1.36
Ischemic Heart Disease RR ([10]; Women): 1.50
Myocardial Infarction RR ([10]; Women): 1.25
Other Heart Disease RR ([10]; Women): 1.41
Stroke RR ([10]; Women): 1.58
Total Cardiovascular Deaths RR ([10]; Women): 1.48
